Tests used:
Type in all cases: ADME
[1] = Half-life period in 95% ethanol in dark at 28 degrees celsius.
[2] = Half-life period in 95% ethanol in diffuse laboratory light at 28 degrees celsius.
[3] = Half-life period in phosphate buffer at pH 7.4 in the dark at 28 degrees celsius.
[4] = Half-life period in 95% ethanol in diffuse laboratory light at 28 degrees celsius

half-life [1] [min]	half-life [2] [min]	half-life [3] [min]	half-life [4] [min]	Compound
23	9	–	–	NC(=O)c1ncn2c(=O)n(-c3ccccc3)nnc12
4.6	–	–	–	NC(=O)c1ncn2c(=O)n(-c3cccc4ccccc34)nnc12
2.6	–	–	–	N#Cc1cccc(-n2nnc3c(C(N)=O)ncn3c2=O)c1
78	8	–	–	CCOc1ccc(-n2nnc3c(C(N)=O)ncn3c2=O)cc1
40	7.5	–	–	Cc1ccc(-n2nnc3c(C(N)=O)ncn3c2=O)cc1
69	8.5	155	–	COc1ccc(-n2nnc3c(C(N)=O)ncn3c2=O)cc1
6.3	8.2	2.9	–	NC(=O)c1ncn2c(=O)n(-c3ccc(Cl)cc3)nnc12
< 1	–	–	–	NC(=O)c1ncn2c(=O)n(-c3ccc([N+](=O)[O-])cc3)nnc12
155	155	–	–	CCCn1nnc2c(C(N)=O)ncn2c1=O
495	–	–	495	Cn1nnc2c(C(N)=O)ncn2c1=O [TEMOZOLOMIDE]

Source: ChEMBL document CHEMBL1122784, “Antitumor imidazotetrazines. 1. Synthesis and chemistry of 8-carbamoyl-3-(2-chloroethyl)imidazo[5,1-d]-1,2,3,5-tetrazin-4(3 H)-one , a novel broad-spectrum antitumor agent” (J Med Chem, 1984)
